# Key:
# [1] = tested on: PD1-ss+10aa/Gaussia Luciferase; experiment: Dox-Induced PD1-ss-Gluc Assay; assay type: cell-based; settings: 24 hr Dox induction; 293FRT/TO cells; read-out: 24 hr Dox Inducible PD1ssGluc 293FRT/TO: Mean IC50
# Method in brief: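 Flp-In 293 T-REx, stable line; Tet-regulated PD1-ss+10aa fused to Gaussia luciferase; plated day prior; cpd + doxycycline in DMSO/media; 37 °C, 5% CO2.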
# [2] = tested on: TNFα-FL/Gaussia Luciferase; experiment: Dox Induced TNFα-FL-Gluc Assay; assay type: cell-based; settings: for IC50: 24 hr Dox induction, 293FRT/TO cells, read-out: 24 hr Dox Inducible TNFaFLGluc 293FRT/TO: Mean IC50; for 24 hr Dox Inducible TNFaFLGluc 293FRT/TO: TNF/PD1: ratio of TNFaFLGluc IC50 to PD1ssGluc IC50
# Method in brief: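 Hygromycin/blasticidin-selected Flp-In 293 T-REx cells, TNFα-FL/Gaussia luciferase fusion under T-REx control; overnight plating, then compound in DMSO/media with doxycycline at 37 °C, 5% CO2; stereo-undefined structures tested as mixtures.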
# [3] = tested on: HER3-ss+4aa/Gaussia Luciferase; experiment: Dox-Induced Her3-ss-Gluc Assay; assay type: cell-based; settings: 24 hr Dox induction; 293FRT/TO cells; read-out: 24 hr Dox Inducible Her3(ss + 4)Gluc 293FRT/TO: Mean IC50
# Method in brief: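 Doxycycline-inducible HER3 signal sequence+4aa/Gaussia luciferase construct, stably integrated in Flp-In 293 T-REx cells; compound dilutions applied with doxycycline at 37° C., 5% CO2.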
# [4] = tested on: IL-2-FL/Gaussia Luciferase; experiment: Dox Induced IL2-FL-Gluc Assay; assay type: cell-based; settings: for IC50: 24 hr Dox induction, 293FRT/TO cells, read-out: 24 hr Dox Inducible IL2FLGluc 293FRT/TO: Mean IC50; for 24 hr Dox Inducible IL2FLGluc 293FRT/TO: IL2/PD1: ratio of IL2FLGluc IC50 to PD1ssGluc IC50
# Method in brief: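 A hygromycin- and blasticidin-resistant 293 T-REx clone carrying inducible IL-2–Gaussia luciferase (full-length IL-2, residues 1-153) serves as the cell system. After overnight plating, the cells get test compounds together with doxycycline in DMSO/media and are incubated at 37° C, 5% CO2.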
# [5] = tested on: multiple myeloma cell line NCI-H929; experiment: H929 Cell Viability Assay; assay type: cell-based, human; settings: Homo sapiens, NCI-H929, 48 h, NCI-H929 cells, Celltiter-Glo
# Method in brief: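 A 48-hour compound treatment of cells in 10% FBS RPMI medium was followed by luciferase-based viability quantification.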
# [6] = tested on: multiple myeloma cell line U266B1; experiment: U266 Cell Viability Assay; assay type: cell-based, human; settings: Homo sapiens, U-266, 48 h, U266B1 cells, Celltiter-Glo
# Method in brief: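 After growth in serum-supplemented RPMI 1640, cells received serially diluted compound in DMSO/media and were kept 48 hours before a CellTiter-Glo luminescence readout.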
# [7] = Liver Microsome Stability Assay (rat); settings: rat liver microsomes, with NADPH, 1.0 uM compound
# Description: (§1) Stability of a compound was assessed in the presence of liver microsomes from various sources—mouse, rat, monkey and human liver microsomes. 1.0 uM compound, 0.4% DMSO in 0.1 M Potassium Phosphate with 1.0 mg/mL liver microsomes, were incubated at 37° C. with or without 1 mM NADPH. The samples were quenched at 0, and 30 minutes.
# [8] = Liver Microsome Stability Assay (mouse); settings: mouse liver microsomes, with NADPH, 1.0 uM compound
# Description: as §1
# [9] = Liver Microsome Stability Assay (human); settings: human liver microsomes, with NADPH, 1.0 uM compound
# Description: as §1
# [10] = Liver Microsome Stability Assay (monkey); settings: monkey liver microsomes, with NADPH, 1.0 uM compound
# Description: as §1
SMILES,IC50 [1] [µM],IC50 [2] [µM],IC50 [3] [µM],IC50 [4] [µM],EC50 [5] [µM],EC50 [6] [µM],Liver Microsome Stability (Multiple Species): Rat - % Remaining after 30 min w/NADPH [7] [%],Liver Microsome Stability (Multiple Species): Mouse - % Remaining after 30 min w/NADPH [8] [%],Liver Microsome Stability (Multiple Species): Human - % Remaining after 30 min w/NADPH [9] [%],Liver Microsome Stability (Multiple Species): Monkey - % Remaining after 30 min w/NADPH [10] [%],24 hr Dox Inducible TNFaFLGluc 293FRT/TO: TNF/PD1 [2],24 hr Dox Inducible IL2FLGluc 293FRT/TO: IL2/PD1 [4]
"CC(=O)Nc1ccc(N2CCC[C@@H]2c2csc(NC(=O)c3cccn3Cc3ccncc3)n2)cc1 [Compound A46, (R)-N-(4-(1-(4-acetamidophenyl)pyrrolidin-2-yl)thiazol-2-yl)-1-(pyridin-4-ylmethyl)-1H-pyrrole-2-carboxamide]",0.003,0.052,0.00651,0.00411,0.079,> 25,9.73,4.16,3.12,2.39,17.3,1.4
CC(=O)N(C)c1ccc(N2CCC[C@@H]2c2csc(NC(=O)c3cccn3Cc3ccncc3)n2)cc1 [Compound A47],0.0436,0.554,0.0835,0.0823,1.21,> 25,1.17,0.02,1.82,0.06,12.7,1.9
"CNCc1ccc(N2CCC[C@@H]2c2csc(NC(=O)c3cccn3Cc3ccncc3)n2)cc1 [Compound A49, (R)-N-(4-(1-(4-((methylamino)methyl)phenyl)pyrrolidin-2-yl)thiazol-2-yl)-1-(pyridin-4-ylmethyl)-1H-pyrrole-2-carboxamide]",0.778,> 25,1.64,2.22,9.86,8.12,10.7,29.4,1.94,0.94,>32.1,2.8

# The remaining compounds from weak to strong by IC50 [1], led by results:
IC50 [1] [µM],IC50 [2] [µM],IC50 [3] [µM],IC50 [4] [µM],EC50 [5] [µM],EC50 [6] [µM],Liver Microsome Stability (Multiple Species): Rat - % Remaining after 30 min w/NADPH [7] [%],Liver Microsome Stability (Multiple Species): Mouse - % Remaining after 30 min w/NADPH [8] [%],Liver Microsome Stability (Multiple Species): Human - % Remaining after 30 min w/NADPH [9] [%],Liver Microsome Stability (Multiple Species): Monkey - % Remaining after 30 min w/NADPH [10] [%],SMILES,24 hr Dox Inducible TNFaFLGluc 293FRT/TO: TNF/PD1 [2],24 hr Dox Inducible IL2FLGluc 293FRT/TO: IL2/PD1 [4]
0.0164,0.22,0.0343,0.0555,0.425,> 25,0.29,0.76,0.08,0.1,"CC(=O)NCc1ccc(N2CCC[C@@H]2c2csc(NC(=O)c3cccn3Cc3ccncc3)n2)cc1 [Compound A45, (R)-N-(4-(1-(4-(acetamidomethyl)phenyl)pyrrolidin-2-yl)thiazol-2-yl)-1-(pyridin-4-ylmethyl)-1H-pyrrole-2-carboxamide]",13.4,3.4
0.00613,0.101,0.0174,0.0135,0.15,> 25,0.64,4.71,2.91,1.44,"COCc1ccc(N2CCC[C@@H]2c2csc(NC(=O)c3cccn3Cc3ccncc3)n2)cc1 [Compound A48, (R)-N-(4-(1-(4-(methoxymethyl)phenyl)pyrrolidin-2-yl)thiazol-2-yl)-1-(pyridin-4-ylmethyl)-1H-pyrrole-2-carboxamide]",16.4,2.2

# Reference: patent publication US20230286973A1, “PROTEIN SECRETION INHIBITORS” (KEZAR LIFE SCIENCES, priority 2020, published 2023)
